Measurements published in patent publication EP4782453A1 (Beyang Therapeutics Co., Ltd., priority 2023, dated 2025).

Experiments:
[1] = target: T1, Menin-MLL (Homo sapiens, UniProt O00255); assay: Inhibitory activity against Menin-MLL binding (fluorescence polarization); details: fluorescence polarization; 150 nM His-Menin, 15 nM FITC-MLL; 25°C for 60 min; read-out: Menin-MLL IC50
T1 construct: His-Menin (M1-L615 end); purchased BIORTUS BP9210
T1 sequence (O00255 1-615 isoform O00255-1): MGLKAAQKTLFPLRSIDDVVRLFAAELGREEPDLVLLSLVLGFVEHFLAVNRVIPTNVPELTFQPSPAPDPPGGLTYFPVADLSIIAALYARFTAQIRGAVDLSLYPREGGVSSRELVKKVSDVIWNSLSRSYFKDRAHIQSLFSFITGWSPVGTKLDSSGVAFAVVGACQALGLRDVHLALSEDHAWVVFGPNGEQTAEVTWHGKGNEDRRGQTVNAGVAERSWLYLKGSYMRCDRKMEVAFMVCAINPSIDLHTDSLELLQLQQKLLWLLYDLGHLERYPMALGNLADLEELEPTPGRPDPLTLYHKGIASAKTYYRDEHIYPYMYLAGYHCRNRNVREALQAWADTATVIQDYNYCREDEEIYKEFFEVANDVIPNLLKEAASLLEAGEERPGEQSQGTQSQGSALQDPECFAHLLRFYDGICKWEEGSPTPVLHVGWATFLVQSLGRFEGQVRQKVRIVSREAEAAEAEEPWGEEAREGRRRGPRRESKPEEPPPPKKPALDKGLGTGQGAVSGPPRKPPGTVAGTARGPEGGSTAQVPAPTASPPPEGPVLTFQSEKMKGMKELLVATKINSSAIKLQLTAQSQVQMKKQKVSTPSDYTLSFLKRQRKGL
How it was run: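 Fluorescence polarization competition: compound and 150 nM His-tagged menin (residues M1-L615) sit 15 min at 25 °C in pH 7.5 HEPES buffer with NaCl, DTT and BSA; 15 nM FITC-labelled MLL peptide then binds for 60 min. IC50 fitted sigmoidally from mP values, duplicate wells.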

[2] = tested on: MOLM-13 (carrying MLL-AF9); assay: Inhibition of proliferation of human tumor cells (Alamar Blue, 7 days), MOLM-13; assay type: cell-based; details: Homo sapiens, 168 h, MOLM-13 cells (carrying MLL-AF9), method calls the value GI50
Source text: Experimental Example 2: Evaluation of Inhibitory Activity of Compounds Against Proliferation of Human Tumor Cells
• Human acute lymphoblastic leukemia cells MV-4-11, purchased from American Type Culture Collection, Catalog Number: CRL-9591; • Human acute myeloid leukemia cells MOLM-13, purchased from COBIOER BIOSCIENCES CO., LTD, Catalog Number: CBP60678; • Human acute myeloid leukemia cells KG-1a, purchased from American Type Culture Collection, Catalog Number: CCL-246.1; • Inverted Microscope, purchased from Olympus Tokyo; • Countess™ Automated Cell Counter, purchased from Invitrogen, Model: C10281; and • Multilabel Reader, purchased from Bio-Tek, Model: Synergy HT.
MV-4-11 cells were cultured in an IMDM medium containing 10% fetal bovine serum, KG-a cells were cultured in an IMDM medium containing 20% fetal bovine serum, or MOLM-13 cells were cultured in an RPMI-1640 medium containing 20% fetal bovine serum, each supplemented with 100 U·mL^-1 penicillin and 100 µg·mL^-1 streptomycin. These cells were cultured at 37°C with 5% CO2. The suspensions of individual cell lines were prepared in their respective media and seeded into 96-well plates at a density of 4,000 cells/well for MV-4-11 and MOLM-13 cells, or 3,000 cells/well for KG-1a cells. On the day of the experiment, a compound stock solution was diluted in a 3-fold or 4-fold gradient using DMSO. Each gradient-diluted stock solution was then further diluted 250-fold with a complete medium to prepare a series of working solutions at different concentrations. Subsequently, 100 µL of working solution (containing a 2-fold concentration series of the test compound) was added to each well, with duplicate wells set up for each concentration.
Seven days after compound addition (on Day 7), an Alamar Blue assay reagent (MCE, HY-111391 / CS-0040317) was added to measure the fluorescence intensity in each well. Wells containing the cells in the growth medium supplemented with 0.1% DMSO (Day 7) served as high-read control wells. The readouts from the wells containing the cells in the growth medium supplemented with 0.1% DMSO on the day of compound addition (Day 0) served as low-reading control well. GraphPad Prism software was used to calculate the concentration required to inhibit 50% of cell proliferation (GI50), which serves as a cell proliferation inhibition activity index.

SMILES: Cc1nc(F)c2c(-c3ccc(F)cc3C(=O)N3CCOC[C@H]3C)cc(C3CN([C@H](CCCN4CCN(S(C)(=O)=O)CC4)C(C)C)C3)cn12 [Example 365]
- IC50 [1]: 8.5 nM
- IC50 [2]: 14 nM

SMILES: Cc1nc(F)c2c(-c3ccc(F)cc3C(=O)N3CCOC[C@H]3C)cc(C3CN([C@H](CCCN4CC5(COC5)C4)C(C)C)C3)cn12 [Example 369]
- IC50 [1]: 3.8 nM
- IC50 [2]: 3 nM

SMILES: CC(=O)N1CC2(CN(CCC[C@H](C(C)C)N3CC(c4cc(-c5ccc(F)cc5C(=O)N5CCOC[C@H]5C)c5c(F)nc(C)n5c4)C3)C2)C1 [Example 370, 1-{6-[(4R)-4-[3-(1-fluoro-8-{4-fluoro-2-[(3R)-3-methylmorpholin-4-carbonyl]phenyl}-3-methylimidazo[1,5-a]pyridin-6-yl)azacyclobutan-1-yl]-5-methylhexyl]-2,6-diazaspiro[3.3]heptan-2-yl}ethan-1-one]
- IC50 [1]: 3.8 nM
- IC50 [2]: 4.2 nM

SMILES: Cc1nc(F)c2c(-c3ccc(F)cc3C(=O)N3CCOC[C@H]3C)cc(C3CN(C(CC[C@H]4COCCN4)C(C)C)C3)cn12 (stereo partly drawn) [Example 373, (3R)-4-{5-fluoro-2-[1-fluoro-3-methyl-6-(1-{4-methyl-1-[(3S)-morpholin-3-yl]pentan-3-yl}azacyclobutan-3-yl)imidazo[1,5-a]pyridin-8-yl]benzoyl}-3-methylmorpholine]
- IC50 [1]: 6.4 nM
- IC50 [2]: 6 nM

SMILES: CCN1CCN(CCC[C@H](C(C)C)N2CC(c3cc(-c4ccc(F)cc4C(=O)N(CC)C(C)C)c4cnc(C)n4c3)C2)CC1 [Example 377]
- IC50 [1]: 2 nM
- IC50 [2]: 1.7 nM

SMILES: CCN(C(=O)c1cc(F)ccc1-c1cc(C2CN([C@H](CCCN3C4CCC3CN(C(C)=O)C4)C(C)C)C2)cn2c(C)ncc12)C(C)C [Example 378, 2-(6-{1-[(3R)-6-{3-acetyl-3,8-diazabicyclo[3.2.1]oct-8-yl}-2-methylhexan-3-yl]azacyclobutan-3-yl}-3-methylimidazo[1,5-a]pyridin-8-yl)-N-ethyl-5-fluoro-N-(isopropyl)benzamide]
- IC50 [1]: 2.8 nM
- IC50 [2]: 5.8 nM

SMILES: Cc1nc(F)c2c(-c3ccc(F)cc3C(=O)N3CCOC[C@H]3C)cc(C3CN([C@H](CCCN4C5CC4CN(C)C5)C(C)C)C3)cn12 [Example 384]
- IC50 [1]: 2.7 nM
- IC50 [2]: 4.1 nM

SMILES: Cc1ncc2c(-c3ccc(F)cc3C(=O)N3CCOC[C@H]3C)cc(C3CN([C@H](CCCN4CCN(CC(F)(F)F)CC4)C(C)C)C3)cn12 [Example 385]
- IC50 [1]: 4.7 nM
- IC50 [2]: 8.1 nM

SMILES: CCN(C(=O)c1cc(F)ccc1-c1cc(C2CN([C@H](CCCN3C4CC3CN(C(C)=O)C4)C(C)C)C2)cn2c(C)ncc12)C(C)C [Example 387]
- IC50 [1]: 2.5 nM
- IC50 [2]: 8.9 nM

SMILES: CCN(C(=O)c1cc(F)ccc1-c1cc(C2CN([C@H](CCCN3CC4(C3)CN(C(C)=O)C4)C(C)C)C2)cn2c(C)ncc12)C(C)C [Example 393]
- IC50 [1]: 2.2 nM
- IC50 [2]: 16 nM

SMILES: CCN(C(=O)c1cc(F)ccc1-c1cc(C2CN([C@H](CCCN3CCN(CCF)CC3)C(C)C)C2)cn2c(C)ncc12)C(C)C [Example 395]
- IC50 [1]: 2 nM
- IC50 [2]: 6.1 nM

SMILES: CCN(C(=O)c1cc(F)ccc1-c1cc(C2CN([C@H](CCCN3CCC(OC)CC3)C(C)C)C2)cc2c1cnn2C)C(C)C [Example 399-2, N-ethyl-5-fluoro-2-(6-{1-[(3R)-6-(4-methoxypiperidin-1-yl)-2-methylhexan-3-yl]azacyclobutan-3-yl}-1-methyl-1H-indazol-4-yl)-N-(isopropyl)benzamide]
- IC50 [1]: 3.3 nM
- IC50 [2]: 25 nM

SMILES: CCN(C(=O)c1cc(F)ccc1-c1cc(C2CN([C@H](CCCN3CCN(CCO)CC3)C(C)C)C2)cc2c1cnn2C)C(C)C [Example 400-2]
- IC50 [1]: 3.7 nM
- IC50 [2]: 12 nM

SMILES: CCN(C(=O)c1cc(F)ccc1-c1cc(C2CN([C@H](CCCN3CCC(OCCO)CC3)C(C)C)C2)cc2c1cnn2C)C(C)C [Example 401-2]
- IC50 [1]: 3.7 nM
- IC50 [2]: 29 nM
